Laboratory results as given in patent US20090136977A1, “NOVEL TARGETS FOR ALZHEIMER'S DISEASE” (priority 2007, published 2009).

Key:
[1] = system: BACE1; conditions: different cell lines; Costantini et al., 2005; cited from earlier work
[2] = system: ATase1 mRNA; experiment: Real-time quantitative PCR of ATase1 mRNA after ceramide treatment; assay type: cell-based, human; conditions: H4 and SH-SY5Y cells; C6-ceramide 10 μM; seen as early as 4 hours, still evident after 4 days
Description: (§1) Chinese Hamster Ovary (CHO) cells were grown in DMEM (Gibco BRL) supplemented with 10% fetal bovine serum (FBS) and penicillin/streptomycin (Mediatech, Inc., Herndon, Va.) as described before (Puglielli et al., 2001, Nat. Cell Biol. 3: 905-912; Puglielli et al., 2003, J. Biol. Chem. 278: 19777-19783). Cells were maintained in a humidified atmosphere with 5% CO2. For ceramide treatment, C6-ceramide (simply called “ceramide”) was administered in the absence of serum and at the final concentration of 10 μM; treatment was started when cells were ˜80% confluent and carried out for the time specified. […]
(§2) RNA quantification was performed by real-time PCR in an ABI PRISM® 7000 Sequence Detection System using SYBR® Green PCR Master Mix (Applied Biosystems). […] Delta-delta Ct values were normalized with those obtained from the amplification of GAPDH and were expressed as fold-change over control. […]
(§3) The 4-hour treatment was performed in the presence of 0.5% fetal bovine serum whereas the 4-days treatment was performed in the presence of 10% fetal bovine serum, as previously described (Puglielli et al., 2003, J. Biol. Chem. 278: 19777-19783; Costantini et al., 2007, Biochem. J. 407: 383-395)). Results are expressed as fold ±S.D. of control (no treatment). […] Results are expressed as fold ±S.D. of age-matched controls.

[3] = system: ATase2 mRNA; experiment: Real-time quantitative PCR of ATase2 mRNA after ceramide treatment; assay type: cell-based, human; conditions: H4 and SH-SY5Y cells; C6-ceramide 10 μM; seen as early as 4 hours, still evident after 4 days
Description: as §1, §2, §3

CCCCCCCCCCCCC/C=C/[C@@H](O)[C@H](CO)NC(=O)CCCCC [ceramide, C6-ceramide]
acetylation and stabilization of BACE1 [1]: increased acetylation and stabilization of BACE1
mRNA levels of ATase1 (transcription) [2]: marked activation of transcription
mRNA levels of ATase2 (transcription) [3]: marked activation of transcription
